In ChEMBL document CHEMBL3507680, “University of Dundee, Gates Library screen for HepG2 cell viability” one finds cytotoxicity data, which are given here for 105 compounds.

Each structure is given as a SMILES string.

This series can be described thus: Human HepG2 cell viability assay in 384 well format. As to conditions: HepG2 cells, read-out: Inhibition. More on the design: dose 125 nL, time 70.5 hour; concentration not given beside the values. The class given is toxicity, cell-based.
For the compound `N#Cc1ccc(F)c(CN(CC(=O)N2CCCC2)CC2CCCO2)c1` (stereo not given), the cytotoxicity at 70.5 h was determined as 0.0703%.
The result for `N#Cc1c(Cl)nsc1NCc1ccc(N2CCCC(C(N)=O)C2)cc1` (stereo not given) reads -2.18%.
The same measure for `Cc1cn2c(CN(C)C(=O)c3nccnc3N)c(C)nc2s1`: 0.596%; for `COc1ccccc1CNC(Cn1cncn1)c1ccccc1` (stereo not given): -2.53%; for `Cc1ccoc1C(=O)N1CCOC2(CCCC2)C1`: -2.84%.
The result for `COc1cc(C(C)NCc2cscn2)ccc1SC(F)F` (stereo not given) reads 30.9%; that for `CCC1CCCCN1CCc1ccncc1` (stereo not given), 29.9%.
Turning to `CCC(=O)NCc1ccccc1Cn1ccnc1`, the cytotoxicity at 70.5 h was -2.6%.
For `NC(=O)C1CCN(C(=O)NCc2ccccc2Cn2ccnc2)CC1`, the cytotoxicity at 70.5 h was -6.43%.
The result for `O=C(NCc1ccccc1Cn1ccnc1)N1CCSCC1` reads -6.06%.
For the compound `COc1cc(C(C)=O)ccc1OCC(=O)N(Cc1ccsc1)C1CC1`, the cytotoxicity at 70.5 h is -12%.
For `COCCN1CCC(NC(=O)Nc2cccc(F)c2)C1` (stereo not given), the cytotoxicity at 70.5 h was -0.696%.
As to `O=C(NCCc1ccn(-c2ccc(F)cc2)n1)C1CCCOC1` (stereo not given), the cytotoxicity at 70.5 h is -1.01%.
The same measure for `Cc1cc(Nc2ccc3c(c2)CC(=O)N3)nc(C(C)C)n1`: -6.82%; for `Cc1cc(Nc2ccc3c(c2)CC(=O)N3)nc(C2CC2)n1`: -9.05%; for `CC1CN(C(=O)NCc2ccn(C)c2)CCN1CC(F)(F)F` (stereo not given): 32.3%.
The result for `COc1ccc(OC)c(CCNC(=O)CCC2CCCO2)c1` (stereo not given) reads -10%.
As to `COCCN1CCC(NC(=O)NCC2(c3ccccc3)CC2)C1` (stereo not given), the cytotoxicity at 70.5 h is -9.2%.
The result for `COc1cc(C(C)=O)ccc1OCC(=O)N(CC(C)C#N)C1CC1` (stereo not given) reads -7.18%.
`Cc1cc(C2CCCN(Cc3ncc(C)o3)C2)n[nH]1` (stereo not given): the cytotoxicity at 70.5 h was -10.2%.
The result for `c1cc(CCN2CCCC2CN2CCCCC2)ccn1` (stereo not given) reads 25.4%.
Consider `CCc1ncc(C(=O)N2CCOCC2CC(=O)c2ccccc2)s1` (stereo not given), for which the cytotoxicity at 70.5 h is -5.53%.
For the compound `O=C(c1cnc(NCC2CCCO2)c(Cl)c1)N1CCOCC1` (stereo not given), the cytotoxicity at 70.5 h is -9.69%.
As to `Cc1cnn(CCNCc2cc(-c3ccccc3)no2)c1`, the cytotoxicity at 70.5 h amounted to 7.59%.
Consider `CC(C1CC1)N(C)Cc1nnc(-c2ccco2)o1` (stereo not given), for which the cytotoxicity at 70.5 h amounted to 1.08%.
`CSc1ccc(C(C)NC(=O)c2cc(C)on2)cc1` (stereo not given): the cytotoxicity at 70.5 h was -4.63%.
The same measure for `Cc1cc(C(=O)NC2CCN(c3ncccc3C#N)CC2)on1`: -6.25%; for `CCC1CN(C(=O)Cc2coc(-c3ccccc3)n2)CCO1` (stereo not given): -3.32%; for `Cc1nc2cc(=O)[nH]n2c(C)c1CC(=O)Nc1cnn(C)c1`: 0.718%.
The result for `CC(C)CN(Cc1nnc(-c2ccco2)o1)CC(C)C` reads 2.87%; that for `CCOC(=O)c1nnc2ccccc2c1N1CCN(CC)CC1`, -7.65%; that for `Cc1cn2c(n1)CCC(NS(=O)(=O)c1sc(C)nc1C)C2` (stereo not given), 3.5%.
The same measure for `CC1CCC(O)(Cn2ncnc2-c2cccc(C#N)c2)CC1` (stereo not given): -5.94%; for `CC1CCCN(Cc2ccc(CNC(=O)NCc3ccon3)cc2)C1` (stereo not given): 2.37%.
Consider `COc1cccc(CN2CCCC2c2ccc[nH]2)c1` (stereo not given), for which the cytotoxicity at 70.5 h turned out to be 0.927%.
Turning to `CN(Cc1ccsc1)C(=O)Cn1c(CS(C)(=O)=O)nc2ccccc21`, the cytotoxicity at 70.5 h was -1.3%.
The same measure for `COCCN1CCCN(C(=O)c2scnc2C)CC1`: -3.53%.
The same measure for `Cc1ccc(C(=O)N(C)Cc2csc(C)n2)c(=O)[nH]1`: 1.68%.
The result for `Cc1ccc(C(=O)N(C)Cc2ccc(Br)o2)c(=O)[nH]1` reads -2.83%; that for `CC(C)N(C)CC(=O)NCC(Cc1ccc(F)cc1)C(N)=O` (stereo not given), 1.22%.
`CCC(CC)C(=O)NCCC(=O)N1CCN(c2ccccn2)CC1`: the cytotoxicity at 70.5 h is 2.35%.
The result for `NC(=O)C(CNC(=O)CCc1ccsc1)Cc1ccc(F)cc1` (stereo not given) reads 21%.
The result for `Cc1ccc(C(=O)N(C)Cc2csc(Br)c2)c(=O)[nH]1` reads 1.57%.
The same measure for `CCn1cnnc1C1CCN(C(=O)c2cnn(C(C)(C)C)c2)CC1`: -5.89%; for `CSC(C)C(=O)NCCC(=O)N1CCN(c2ccccn2)CC1` (stereo not given): -3.28%; for `Cc1ccc(CC(=O)NCC(Cc2ccc(F)cc2)C(N)=O)cn1` (stereo not given): -0.982%.
As to `CC(C)c1cc(C(=O)N2CCOCC2CC(=O)c2ccco2)nn1C` (stereo not given), the cytotoxicity at 70.5 h is -0.209%.
The result for `Cc1ccc(NCCNC(=O)c2cc(CC(C)C)n[nH]2)nn1` reads 4.32%; that for `CCN1CCN(C(=O)c2scnc2C)CC1`, 18.9%; that for `Cc1ncsc1C(=O)N1CCN(CCC(C)C)CC1`, -6.29%.
With `COCCOCC(=O)Nc1ccccc1F`, the cytotoxicity at 70.5 h was -6.23%.
The result for `COCCCN(CCOC)C(=O)Nc1ccc(Br)cc1` reads -7.21%; that for `CN(CCS(C)(=O)=O)C1CCCN(Cc2noc(C3CC3)n2)C1` (stereo not given), 17.9%.
The same measure for `Cc1cccc(NC(=O)c2sc(C)nc2C)n1`: -11.8%.
The same measure for `CCc1noc(C(C)N2CCN(CC(=O)N3CCOCC3)CC2)n1` (stereo not given): -4.7%; for `Cc1ccc(CNC2CCc3nc(C(C)C)nn3C2)o1` (stereo not given): -4.86%; for `CCn1cnnc1C1CCN(C(=O)c2ccnc(N(C)C)c2)CC1`: -8.14%.
As to `O=C(CN1CCCC1Cn1cncn1)Nc1nncs1` (stereo not given), the cytotoxicity at 70.5 h was determined as 14.3%.
Turning to `Cc1nc(C)n(CC2CCCN2CC(=O)Nc2cccnc2)n1` (stereo not given), the cytotoxicity at 70.5 h was -0.954%.
The result for `O=C(CN1CCCC(Cn2cncn2)C1)Nc1cccnc1` (stereo not given) reads 0.545%; that for `Cc1ccc(NC(=O)CNc2ccccc2C(N)=O)c(C)c1`, 2.06%.
In the case of `CCOc1ncccc1NC(=O)c1ccc(C(C)=O)s1`, the cytotoxicity at 70.5 h was -14.4%.
The same measure for `CCOc1ncccc1NC(=O)c1cccs1`: -10.3%; for `CC(C)NC(=O)c1nnn(-c2ccc(F)cc2)c1C1CC1`: -4.05%.
The same measure for `Cc1c(C(=O)NC(C)C)nnn1-c1cccc(C(F)(F)F)c1`: -4.53%.
The same measure for `CNC(=O)COc1ccc(CNCc2cc(F)ccc2F)cc1`: -2.81%; for `CC(C)CN1CCC(NC(=O)c2ccc(F)cc2F)CC1`: 0.0411%; for `CN(Cc1cnn(C)c1)C(=O)NCC1CCS(=O)(=O)C1` (stereo not given): -4.43%.
Regarding `CCc1nnc2n1CCN(C(=O)c1ccc3cc[nH]c3c1)C2`, the cytotoxicity at 70.5 h was -4.35%.
On to `N#CCCCOc1cccnc1NC(=O)CC1CCCCC1`, for which the cytotoxicity at 70.5 h was 39.8%.
The result for `CC(=O)NCCNC(=O)c1cccc(Cn2nc(C)cc2C)c1` reads -1.57%.
The same measure for `Cc1nc(-c2ccsc2)ccc1C(=O)N(C)CC(F)(F)F`: -11.2%.
The same measure for `N#CCCCOc1cccnc1NC(=O)Cc1ccccc1F`: 0.586%; for `CCOc1ccc(C2CCCN2Cc2nnnn2C2CC2)cc1` (stereo not given): 0.0309%.
`COc1cccc(C2CCCN2Cc2nnnn2C2CC2)c1` (stereo not given): the cytotoxicity at 70.5 h is -3.76%.
The result for `Cc1cnn(CC(C)NCc2nc(-c3ccccn3)no2)c1` (stereo not given) reads -7.46%; that for `COc1ccc(CNCCc2cc(F)cc3c2OCOC3)c(OC)c1`, 25.5%; that for `O=C(CN1CCCC1Cn1cncn1)Nc1ccc(Cl)cn1` (stereo not given), -3.38%.
In the case of `Cc1cnn(CC2CCCCN2CC(=O)Nc2cccnc2)c1` (stereo not given), the cytotoxicity at 70.5 h turned out to be 0.635%.
Consider `CCc1cnc(CN(C)C2CCN(CC3CCN(C(C)=O)CC3)C2)o1` (stereo not given), for which the cytotoxicity at 70.5 h worked out at 10%.
The same measure for `COc1ccc(CNC(=O)NC(C)(CO)C2CC2)c(C(F)(F)F)c1` (stereo not given): 0.673%; for `CN(Cc1noc(C2CC2)n1)C1CCN(Cc2nc(C3CC3)no2)C1` (stereo not given): 0.524%; for `Cc1n[nH]c(C2CN(C(=O)CCCn3cccn3)CCO2)n1` (stereo not given): -2.71%.
The same measure for `CCc1cnc(CN(C)C2CCN(CC3CCC3)C2)o1` (stereo not given): 8.96%; for `N#CC1(C(=O)NCc2ccc(F)cc2)CCCC1`: 3.1%; for `CN(C)C(CNC(=O)c1cccc(C(N)=O)c1)c1ccccc1Cl` (stereo not given): 3.17%.
The result for `CC(CN1CCOCC1)NC(=O)c1cc(Cl)c2c(c1)OCO2` (stereo not given) reads 2.56%.
As for `COc1ccc(NC(=O)N(CCO)Cc2ccsc2)cc1`, the cytotoxicity at 70.5 h is -3.63%.
The same measure for `COc1ccccc1NC(=O)N(CCO)Cc1ccsc1`: 5.1%; for `CC(C)c1ncncc1C(=O)NCCN1CCOCC1`: 1.2%; for `CC(C)c1ncncc1C(=O)NCCN1CCCC1`: 5.71%.
Regarding `CC(C)(C(=O)NCC(=O)NC1CC1)c1ccccc1F`, the cytotoxicity at 70.5 h is 2.62%.
The same measure for `CC(C)(CNC(=O)C(C)(C)c1ccccc1F)C(N)=O`: 2.08%; for `COc1ccc(CNC(=O)NCC(=O)NC2CC2)c(C(F)(F)F)c1`: 21.2%.
The same measure for `CCCOc1cc(C)ccc1NC(=O)N(C)C`: 4.68%; for `CN(C)C(CNC(=O)c1ccc(-n2cnnn2)cc1)c1ccccc1Cl` (stereo not given): 5.44%; for `COc1ccc(CNC(=O)NC2CCN(C)CC2)c(C(F)(F)F)c1`: 2.4%.
The result for `CC(CN1CCCC1=O)NC(=O)c1cc(Cl)c2c(c1)OCO2` (stereo not given) reads 7.24%; that for `CCN(C(=O)c1cnc(-c2ccc3c(c2)OCO3)s1)C1CC1`, 12.4%.
For `Cc1cccc(S(=O)(=O)NC(=O)CCc2cscn2)c1`, the cytotoxicity at 70.5 h is 4.67%.
With `CSc1ccc(NC(=O)NCC2CCCO2)cc1F` (stereo not given), the cytotoxicity at 70.5 h stood at 11.2%.
The result for `Cc1ccc(S(=O)(=O)NC(=O)CCc2cscn2)cc1Cl` reads 25.6%; that for `Cc1ccc(C(=O)N2CCCC(n3cncn3)C2)o1` (stereo not given), 1.71%.
The result for `CC(C)c1cnc(CN(C)C2CCN(CCS(C)(=O)=O)C2)o1` (stereo not given) reads 2.71%; that for `Cc1nn(C)c(N2CCOCC2)c1CNC(C)c1ccccn1` (stereo not given), 5.82%.
